Molecular target: Complement factor D (Homo sapiens, UniProt P00746)
Experiment: Factor D Assay: Human factor D (purified from human serum, Complement Technology, Inc.) at 80 nM final concentration is incubated with test compound at various concentrations for 5 minutes at room temperature in 50 mM Tris, 1M NaCl, pH 7.5. A synthetic substrate Z-L-Lys-SBzl and DTNB (Ellman's reagent) are added to final concentrations of 100 μM each. The increase in color is recorded at OD405 nm in a microplate in kinetic mode over 30 minutes with 30 second time points in a spectrofluorimeter. IC50 values are calculated by non-linear regression from the percentage of inhibition of complement factor D activity as a function of test compound concentration.

Chain of Complement factor D (P00746 whole entry): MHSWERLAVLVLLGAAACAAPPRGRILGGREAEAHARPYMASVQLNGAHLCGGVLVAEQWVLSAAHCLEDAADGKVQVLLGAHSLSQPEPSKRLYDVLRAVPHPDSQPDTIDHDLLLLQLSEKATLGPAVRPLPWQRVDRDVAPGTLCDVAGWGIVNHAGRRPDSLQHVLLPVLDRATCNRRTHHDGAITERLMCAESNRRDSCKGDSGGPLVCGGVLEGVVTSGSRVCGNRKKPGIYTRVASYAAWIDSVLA

SMILES | IC50
CC(=O)c1cn(CC(=O)N2C[C@H](F)C[C@H]2C(=O)Nc2cccc(Br)n2)c2ccc(-c3ccc(C)nn3)cc12 | < 1000 nM
NC(=O)c1nn(CC(=O)N2C[C@H](F)C[C@H]2C(=O)Nc2cccc(Cl)n2)c2ccc(-c3ccnnc3)cc12 | < 1000 nM
CC(=O)c1cn(CC(=O)N2C[C@H](F)C[C@H]2C(=O)Nc2cccc(Cl)n2)c2ccc(-c3ccnnc3)cc12 | < 1000 nM
